The results in this text go back to ChEMBL document CHEMBL1201862, “PubChem BioAssay data set” (2004).

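Interpolation was linear, between the two tested concentrations surrounding the appropriate level; five concentrations were tested over 48 hours in 96-well plates. Here, GI50 denotes the concentration required for 50% inhibition of growth.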 Activity calls are given as the source filed them. No stated cut-off is given here; in the data, active = GI50 up to about 1.1 µM and inactive = higher.

Common to all, as to assay: NCI tumour cell line growth inhibition, 48 h
Assay [1] has as its system U-251.
In assay [2] the test system is SF-295.
For assay [3], the system named is RPMI-8226.
The subject of assay [4] is DU-145.
Assay [5] deals with CCRF-CEM.
Assay [6] concerns SK-OV-3.
Assay [7] deals with UO-31.
The test system of assay [8] is SK-MEL-5.
Assay [9] deals with LOX IMVI.
Assay [10] deals with CAKI-1.
Assay [11] deals with PC-3.
For assay [12], the system named is SK-MEL-28.
Assay [13] has as its system HOP-92.
Assay [14] deals with T47D.
Assay [15] has as its system MOLT-4.
The subject of assay [16] is HCC 2998.
Assay [17] has as its system 786-0.
Assay [18] relates to BT-549.
Assay [19] concerns A549.
The subject of assay [20] is UACC-257.

On to `CN(C)C(=S)SN(C)C(=O)Nc1ccccc1`, for which the GI50 in [1] was 18 µM (inactive); in [2], 49.3 µM (inactive); in [3], 15.7 µM (inactive); in assay [4] it was 63 µM (inactive); in assay [5], 0.993 µM (active); in [6] it was > 87.7 µM (inactive). In addition, the GI50 in [7] was 57.7 µM (inactive); in [8] it was 3.28 µM (inactive); in [9] it was 8.26 µM (inactive); in [10] it was 26.1 µM (inactive); in assay [11] it was 7.43 µM (inactive); in [12] it was 12.2 µM (inactive). For the same compound, the GI50 in [13] was 3.5 µM (inactive); in assay [14] it was 1.26 µM (inactive); in assay [15], 2.76 µM (inactive); in [16], 17.3 µM (inactive); in assay [17], 6.62 µM (inactive); in [18] it was > 41.2 µM (inactive). Moreover, the GI50 in assay [19] was 23.4 µM (inactive); in [20], 46.1 µM (inactive).
Turning to `CC(C)(C)NCCC(O)c1cc(C(F)(F)F)nc2c(C(F)(F)F)cccc12` (stereo not given), the GI50 in [1] was 7.53 µM (inactive); in assay [2], 8.75 µM (inactive); in assay [3] it was 4.58 µM (inactive); in assay [4] it was 2.38 µM (inactive); in assay [5], 5.57 µM (inactive); in assay [6], 16.2 µM (inactive). Moreover, the GI50 in assay [7] was 0.502 µM (active); in assay [8], 12.5 µM (inactive); in [9], 1.12 µM (inactive); in [10], 4.25 µM (inactive); in assay [11], 8.57 µM (inactive); in assay [12], 15.7 µM (inactive). In addition, the GI50 is 12.3 µM (inactive) in assay [13]; 14.3 µM (inactive) in assay [14]; 4.12 µM (inactive) in assay [15]; 2.43 µM (inactive) in assay [16]; 6.98 µM (inactive) in assay [17]; 8.11 µM (inactive) in assay [18]. Moreover, the GI50 was 4.38 µM (inactive) in assay [19] and 13.5 µM (inactive) in assay [20].
Regarding `Cc1cc(N(C)C)c2ccccc2[n+]1CCCCCCCCCC[n+]1c(C)cc(N(C)C)c2ccccc21.[O-][Cl+3]([O-])([O-])[O-].[O-][Cl+3]([O-])([O-])[O-]`, the GI50 was 0.124 µM (active) in assay [1]; 1.47 µM (inactive) in assay [2]; 0.128 µM (active) in [3]; 1.58 µM (inactive) in assay [4]; 0.577 µM (active) in assay [5]; 0.735 µM (active) in assay [6]. Moreover, the GI50 is 3.38 µM (inactive) in assay [7]; 0.165 µM (active) in assay [8]; 0.871 µM (active) in assay [9]; 7.5 µM (inactive) in assay [10]; 0.589 µM (active) in assay [11]; 0.986 µM (active) in assay [12]. Besides, the GI50 in assay [13] is 1.64 µM (inactive); in assay [14], 0.428 µM (active); in [15], 0.687 µM (active); in assay [16], 0.893 µM (active); in assay [17], 2.59 µM (inactive); in assay [18], 0.676 µM (active). Also, the figures for the GI50 in assay [19] and in assay [20] were 0.587 µM (active) and 0.238 µM (active), respectively.
For the compound `CC(=O)NNc1nc(C)c(C(/C=C/c2ccccc2O)=N/N=C(N)N)s1`, the GI50 in [1], in [2], in [3], in assay [4], in [5] and in assay [6] was > 100 µM (inactive) each time. Further, the GI50 in assay [7], in [8], in [9], in [10], in [11] and in [12] was > 100 µM (inactive) each time. Also, the GI50 in assay [13], in assay [14], in assay [15], in assay [16], in assay [17] and in assay [18] was > 100 µM (inactive) each time. For the same compound, the GI50 in [19] and in assay [20] was > 100 µM (inactive) each time.
`COC(=O)C1(C#N)C(C)(C)N=C(c2ccccc2)C12CCCCC2` (stereo not given): the GI50 in assay [1] is > 100 µM (inactive); in [2], 56.4 µM (inactive); in assay [3] it was 63.4 µM (inactive); in assay [4], > 100 µM (inactive); in [5], > 100 µM (inactive); in assay [6], > 100 µM (inactive). Besides, the GI50 in assay [7] was 75.7 µM (inactive); in assay [8], > 100 µM (inactive); in assay [9] it was > 100 µM (inactive); in [10] it was > 100 µM (inactive); in assay [11], 58.7 µM (inactive); in assay [12], 82 µM (inactive). Besides, the GI50 in [13] is 53.2 µM (inactive); in assay [14] it was > 100 µM (inactive); in assay [15] it was 45.9 µM (inactive); in assay [16], > 100 µM (inactive); in assay [17], > 100 µM (inactive); in assay [18], > 100 µM (inactive). Moreover, the GI50 in assay [19] is 85.7 µM (inactive); in assay [20], > 100 µM (inactive).
On to `CC(=O)Oc1ccc(/C=C/C(=O)O[C@H]2CCCC[C@@H]2OC(=O)/C=C/c2ccc(OC(C)=O)c(OC(C)=O)c2)cc1OC(C)=O`, for which the GI50 in assay [1] was 9.25 µM (inactive); in [2] it was 4.37 µM (inactive); in assay [3], 4.07 µM (inactive); in [4], 13.3 µM (inactive); in assay [5] it was 2.75 µM (inactive); in assay [6], 11.8 µM (inactive). Moreover, the GI50 in assay [7] was 3.54 µM (inactive); in assay [8], 4.69 µM (inactive); in [9], 2.49 µM (inactive); in assay [10] it was 5.41 µM (inactive); in [11], 8.28 µM (inactive); in [12] it was 12.8 µM (inactive). The GI50 in assay [13] is 4.62 µM (inactive); in assay [14], 11.5 µM (inactive); in assay [15] it was 2.64 µM (inactive); in assay [16] it was 13.8 µM (inactive); in [17] it was 4.57 µM (inactive); in assay [18], 13.2 µM (inactive). In addition, the GI50 was 6.87 µM (inactive) in assay [19] and 11.8 µM (inactive) in [20].
Turning to `CCOC(=O)c1c(N2CCOCC2)[nH]c(=O)c(C(c2cccs2)c2c(O)c(C(=O)OCC)c(N3CCOCC3)[nH]c2=O)c1O`, the GI50 in [1], in assay [2], in assay [3], in assay [4], in [5] and in assay [6] was > 100 µM (inactive) throughout. The GI50 in [7], in [8], in assay [9], in assay [10], in [11] and in assay [12] was > 100 µM (inactive) in each case. In addition, the GI50 in assay [13], in assay [14], in assay [15], in assay [16], in assay [17] and in assay [18] was > 100 µM (inactive) each time. The GI50 in [19] and in assay [20] was > 100 µM (inactive) throughout.
